In publication PMC10682503, “Structural and functional basis of inositol hexaphosphate stimulation of NHEJ through stabilization of Ku-XLF interaction” (Nucleic Acids Research, 2023):

Legend:
[1] = molecular target: T1, KuΔC (Ku heterodimer deleted of its C-terminal regions) (Homo sapiens, UniProt P12956+P13010); assay: ITC, KuΔC with IP6; format: binding
T1 construct: heterodimer deleted of its C-terminal region (Ku70 1–544, Ku80 1–551); His-tag (10x His with TEV site, same vector as KuFL) (N); made in house; host or cells: Sf21 insect cells
Description: Purification of Ku full-length (KuFL) for cryo-EM experiments was carried out as described previously ([5]). Expression and purification of KuFL for biophysical experiments was carried out as described previously ([20]). The full-length human Ku heterodimer subunits (Ku70 1–609, Ku80 1–732) were cloned into a Multibac vector ([21]). The construct has a 10× His-tag and a TEV site on the N-terminus of Ku80 and no-tag on Ku70. Protein production was initiated in Sf21 cells by infection with the baculovirus stock at MOI of 5 × 10^−3 and cells were collected 5–6 days after the infection (3–4 days after the proliferation arrest). Cells were sonicated and the supernatant was incubated with Benzonase (300 units for 30 min at 4°C). The Ku heterodimer was purified on a NiNTA-Agarose affinity column (Protino, Macherey Nagel) with a 1 M NaCl wash step to remove DNA excess. The eluted Ku was then bound onto an anion exchange column (Resource Q, Cytiva) equilibrated in 20 mM Tris pH 8.0, 50 mM NaCl, 50 mM KCl, 10 mM β-mercaptoethanol and eluted with a salt gradient. […]
Calorimetry. Interactions between KuFL and inositol phosphates (IPs) (IP6 and IP6 analogues) were determined by Isothermal Titration Calorimetry (ITC) using a VP-ITC calorimeter (Malvern). […] The free energy of binding (ΔG) and the entropy (ΔS) were determined using the classical thermodynamic formula, ΔG = - RT ln(Ka) and ΔG = ΔH - TΔS. […]

Ku = molecular target: Ku; set-up: method as in PMID 18776215; settings: competition assays with 3H-IP6; cited from earlier work

T1 sequence (P12956 1-544, stated change not applied): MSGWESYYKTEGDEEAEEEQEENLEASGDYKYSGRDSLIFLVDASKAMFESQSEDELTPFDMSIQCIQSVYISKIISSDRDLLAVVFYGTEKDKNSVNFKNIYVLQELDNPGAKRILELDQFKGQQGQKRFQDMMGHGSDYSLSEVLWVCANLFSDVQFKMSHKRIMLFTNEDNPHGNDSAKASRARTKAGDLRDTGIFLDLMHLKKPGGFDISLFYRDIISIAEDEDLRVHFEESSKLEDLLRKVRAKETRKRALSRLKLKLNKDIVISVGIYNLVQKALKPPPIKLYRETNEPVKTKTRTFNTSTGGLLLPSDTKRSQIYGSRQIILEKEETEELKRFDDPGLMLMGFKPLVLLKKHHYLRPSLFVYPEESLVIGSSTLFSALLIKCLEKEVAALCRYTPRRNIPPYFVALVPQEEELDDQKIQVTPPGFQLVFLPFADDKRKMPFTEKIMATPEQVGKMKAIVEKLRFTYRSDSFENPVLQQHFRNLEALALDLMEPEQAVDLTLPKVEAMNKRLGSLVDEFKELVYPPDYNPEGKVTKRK
T1 sequence (P13010 1-551, stated change not applied): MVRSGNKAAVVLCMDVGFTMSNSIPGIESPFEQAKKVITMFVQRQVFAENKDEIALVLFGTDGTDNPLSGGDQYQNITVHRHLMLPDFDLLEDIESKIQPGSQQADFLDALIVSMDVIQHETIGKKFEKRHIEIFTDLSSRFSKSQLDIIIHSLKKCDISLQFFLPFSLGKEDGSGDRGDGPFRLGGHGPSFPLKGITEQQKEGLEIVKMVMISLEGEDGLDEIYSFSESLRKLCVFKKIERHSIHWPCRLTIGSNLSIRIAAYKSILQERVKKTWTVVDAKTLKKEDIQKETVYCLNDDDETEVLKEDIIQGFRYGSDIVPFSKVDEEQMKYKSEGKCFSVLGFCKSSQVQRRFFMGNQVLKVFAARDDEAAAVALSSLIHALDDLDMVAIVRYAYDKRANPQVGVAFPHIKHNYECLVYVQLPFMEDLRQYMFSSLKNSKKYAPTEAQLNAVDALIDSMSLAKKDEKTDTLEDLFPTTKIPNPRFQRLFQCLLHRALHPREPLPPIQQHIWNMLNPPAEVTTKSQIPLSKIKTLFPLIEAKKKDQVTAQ

O=P(O)(O)O[C@H]1[C@H](OP(=O)(O)O)[C@@H](OP(=O)(O)O)[C@H](OP(=O)(O)O)[C@@H](OP(=O)(O)O)[C@H]1OP(=O)(O)O [IP6, inositol hexaphosphate]
weaker affinity of KuΔC compared with KuFL [1]: ~50 fold
Kd ([1]; KuΔC construct): 178 ± 12 nM
Kd (Ku): 46 nM
